In patent US20040087498A1, “Modified factor VII” (Novo Nordisk Health Care AG, priority 1991, published 2004):
“And” between values parts separate entries of the source, which are not always exact repeats. Equal entries are not always repeated.

Assays:
[1] = test system: platelet accumulation at sites of arterial thrombosis; experiment: Platelet accumulation on endarterectomized baboon aorta in an extracorporeal shunt; format: in vivo
From the text: A model of aortic endarterectomy was utilized in baboons, essentially as described by Lumsden et al. (Blood 81:1762-1770 (1993)). A section of baboon aorta 1-2 cm in length was removed, inverted and scraped to remove the intima of the artery and approximately 50% of the media. The artery was reverted back to its correct orientation, cannulated on both ends and placed into an extracorporeal shunt in a baboon, thereby exposing the mechanically injured artery to baboon blood via the shunt. Just prior to opening of the shunt to the circulating blood, ^111In-labeled autologous platelets were injected intravenously into the animal. The level of platelet accumulation at the site of the injured artery was determined by real-time gamma camera imaging.
The injured arteries were measured continuously for 60 minutes. […] At a 1.0 mg/kg bolus injection, approximately 90% of platelet accumulation was inhibited at 1 hour post drug administration.

[2] = ELISA for DEGR-FVIIa in rabbit plasma; format: in vivo; conditions: for FVIIa ELISA, DEGR-FVIIa in rabbit plasma, individual animals: listed as DEGR-FVIIa
Method: The test drug delivery for the animals consisted of an initial bolus injection immediately prior to balloon angioplasty, followed by a continuous systemic infusion by osmotic pump via the internal jugular vein. The duration of the drug infusion was 3 days. The control animals received heparin, 150 U/kg IV bolus, prior to balloon angioplasty followed by saline infusion. The DEGR-FVIIa treated animals received a 1 mg/kg bolus injection followed by 50 μg/kg/hr infusion.
Prothrombin time and concentration of DEGR-FVIIa in the blood were determined at immediately pre-bolus injection of the test compound, 1 hr post bolus injection, and at 3 days at the end of continuous infusion. One to two mls of citrated plasma was obtained and the prothrombin times and antigen levels determined.
An ELISA assay was used to determine the concentration of DEGR-FVIIa in plasma samples from the control and DEGR-FVIIa treated rabbits. The assay involved first diluting an anti-human FVII monoclonal antibody (Dr. W. Kisiel, U. of New Mexico) to 2.0 μg/ml in 0.1 M carbonate buffer pH 9.6, and adding 100 μl/well to 96-well plates. The plates were then incubated at 4° C. overnight and subsequently washed two times using wash buffer (PBS, pH 7.4, containing 0.05% Tween 20).
After blocking, a standard dilution series of DEGR-FVIIa ranging from 20-0.027 ng/ml was added, along with a dilution series of the test rabbit plasma (1:100 to 1:4000 in blocking buffer) applied at 100 μl/well. Non-immune rabbit plasma was used as a negative control. Plates were then incubated for 1 hr at 37° C. followed by four washes with wash buffer.
DEGR-FVIIa was detected by adding 100 μl/well of a 1:1,000 dilution of rabbit anti-human FVII polyclonal antibody (Dr. Kisiel, U. New Mexico) in blocking buffer. Plates were incubated for 1 hr at 37° C., followed by five washes with wash buffer. Specific antibody binding was detected using 100 μl/well of a 1:2,000 dilution of goat anti-rabbit IgG antibody-peroxidase conjugate (Tago, Inc.). Plates were incubated for 1 hr at 37° C. and washed six times with wash buffer. Finally, 100 μl of substrate solution was added (0.42 mg/ml of o-phenylenediamine dihydrochloride [OPD] in 0.2 M citrate buffer, pH 5.0, containing 0.3% H2O2). After 1-3 min at room temp. the color reaction was stopped by adding 100 μl/well of 1N H2SO4 and the plates were read at 490 nm on a Microplate spectrophotometer. The concentration of DEGR-FVIIa in the plasma samples was determined by comparing the A490 values of the unknown to those of the DEGR-FVIIa standard curve.

[3] = test system: tissue factor preparation (saline extract of baboon brain); experiment: Clotting assay in normal baboon plasma with baboon brain tissue factor; format: biochemical
Method: The samples were mixed and briefly incubated at 37° C. The samples were added to an Electra 800 Automatic Coagulation Timer (Medical Laboratories Automation, Pleasantville, N.Y.). […] A tissue factor preparation was made as a saline extract of baboon brain from freshly frozen brain tissue and characterized for its ability to initiate coagulation in baboon plasma. A concentration of tissue factor that gave a clotting time of about 40 seconds was selected.

[4] = test system: vascular lesion formation; experiment: Balloon brachial artery model in baboons; format: in vivo; conditions: baboon brachial artery balloon model, preliminary studies
Method: Under halothane anesthesia and sterile operating conditions, animals labeled with autologous ^111In-platelets received intravenous infusions of DEGR-FVIIa using the tether system for continuous intravenous administration (initial bolus injection of 1 mg/kg followed by continuous intravenous infusion of 50 μg/kg/hr. The animals received surgical carotid endarterectomy, bilateral brachial artery or bilateral femoral artery Fogarty balloon catheter angioplasties.
The DEGR-FVIIa was administered for 7 or 30 days by continuous infusions via venous catheter using the tether system. […]
For morphometric analysis of VLF, sections embedded in paraffin and stained for connective tissue components (collagen, elastin) and with hematoxylin-eosin, were evaluated using a Zeiss Photoscope coupled with image analysis system (Thomas Optical Measurement Systems, Columbus, Ga.) consisting of high resolution (580 lines) CCD microscope camera coupled to a high resolution (700 lines) monitor, an IBM 386 chip, 80 MB computer with high resolution graphics digitablet for image acquisition and storage. Quantitative image analysis was performed using a morphometric software driver (Optimas, Bioscan, Inc., Edmonds, Wash.). Arterial cross-sections were analyzed with respect to the total area of neointimal proliferative lesion and corresponding area of arterial media. […]

With “DEGR-Factor VIIa: Recombinant human Factor VIIa with its active site derivatized by Dansyl-L-Glu-Gly-Arg-chloromethyl Ketone (DEGRck)” the platelet accumulation ([1]; baboon, 0.005 mg/kg bolus injection) was “inhibited platelet accumulation”, the “inhibition of platelet accumulation” value ([1]; baboon, 1.0 mg/kg bolus injection, 1 hour post drug administration) was “approximately 90%” and the “thrombus formation (platelet deposition)” value ([1]; bolus injection, arteries measured over 60 minutes, versus saline-treated controls) was “significantly inhibited the development of platelet-rich thrombi”. For the same substance, the “FVIIa ELISA, DEGR-FVIIa in rabbit plasma, individual animals” value (“FVIIa ELISA, DEGR-FVIIa in rabbit plasma” below) ([2]; 1 hour after 1 mg/kg bolus, 50 μg/kg/hr infusion) was 3,210 ng/ml and 4,950 ng/ml and 4,543 ng/ml and 4,900 ng/ml and 4,600 ng/ml and 2,145 ng/ml and 2,830 ng/ml, the “FVIIa ELISA, DEGR-FVIIa in rabbit plasma” value ([2]; 3 days, end of 50 μg/kg/hr infusion) was 102 ng/mL and 7 ng/mL and 661 ng/mL and 117 ng/mL and 502 ng/mL and 212 ng/mL and 228 ng/mL and the “FVIIa ELISA, DEGR-FVIIa in rabbit plasma” value ([2]; Pretreatment) was 0 ng/ml and 1 ng/ml and 13 ng/ml (2×) and 65 ng/ml and 4 ng/ml and 9 ng/ml. For the same substance, the “DEGR-FVIIa antigen level in the plasma” value ([2]; rabbit, 1 hr time point, range over animals) was 2 to 6 µg/mL, the Clotting time ([3]; 0.5 μg/ml plasma) was 46.2 s and the Clotting time ([3]; 1.0 μg/ml plasma) was 50.8 s. The Clotting time ([3]; 2.5 μg/ml plasma) was 64.5 s, the Clotting time ([3]; 5.0 μg/ml plasma) was 108.1 s and the Clotting time ([3]; 10.0 μg/ml plasma) was 158.4 s. The benefit of therapy [4] was “no measurable benefit”.
